Data as given in US11890291B2, “Aqueous composition with water insoluble vitamins” (Innova Agri Bio Park Private Limited, priority 2018, dated 2024).

Experiments:
[1] = Volume of distribution test; type: in vivo, Wistar rats; settings: oral 5 mg/kg
Procedure: The volume of distribution (Vd) test was done to check the ability of Vitamin D3 nanogels/nanoparticles to distribute through different body fluid compartments. Apparent volume of distribution (Vd) was calculated by dividing the amount of the nanogel/nanoparticles and the standard drug administered on the plasma concentration as shown in Table 11.

in vivo = settings: Wistar, rat, po, 5 mg/kg
Procedure: Test substance (Vitamin D3 fortified aqueous composition) and standard drug cholecalciferol (Vitamin D3) was administered by oral route at the dose of 5 mg/kg body weight to Rats as shown in Table 8.
After oral administration of the test substance and the standard drug, 500 μL of blood sample was collected in EDTA containing tubes at different time intervals of 0, ½, 1, 2, 4, 8, 12, 24 and 48 hours.
The plasma was separated from blood samples for bioanalysis and pharmacokinetic profiling was performed using LC-MS/MS method for the quantification of vitamin D3 in Rat plasma.
The area under the plasma drug concentration-time curve (AUC) was calculated which reflects the actual body exposure to drug after administration of a dose of the drug.

In the case of `C=C1CC[C@H](O)C/C1=C/C=C1\CCC[C@]2(C)[C@@H]([C@H](C)CCCC(C)C)CC[C@@H]12` [Standard vitamin D3, cholecalciferol], the “Volume of distribution (Vd)” value ([1]; 0 Hr) is reported as 333.3 ± 333.3 L/kg, the “Volume of distribution (Vd)” value ([1]; 0.5 Hr) is reported as 548.8 ± 285.8 L/kg and the “Volume of distribution (Vd)” value ([1]; 1 Hr) is reported as 632.7 ± 339.6 L/kg. For the same compound, the “Volume of distribution (Vd)” value ([1]; 2 Hr) was 465.9 ± 129.3 L/kg, the “Volume of distribution (Vd)” value ([1]; 4 Hr) was 96.22 ± 25.47 L/kg and the “Volume of distribution (Vd)” value ([1]; 8 Hr) was 20.25 ± 4.58 L/kg. The “Volume of distribution (Vd)” value ([1]; 12 Hr) was 6.73 ± 0.89 L/kg, the “Volume of distribution (Vd)” value ([1]; 24 Hr) was 4.98 ± 0.67 L/kg and the “Volume of distribution (Vd)” value ([1]; 48 Hr) was 6.74 ± 0.31 L/kg. For the same compound, the AUC at 0 h (in vivo) was 20 ng·h/mL, the AUC at 0.5 h (in vivo) was 43.3 ng·h/mL and the AUC at 1 h (in vivo) was 41.7 ng·h/mL. It also gave an AUC at 2 h (in vivo) of 106 ng·h/mL, an AUC at 4 h (in vivo) of 289 ng·h/mL and an AUC at 8 h (in vivo) of 1180 ng·h/mL. It also gave an AUC at 12 h (in vivo) of 3010 ng·h/mL, an AUC at 24 h (in vivo) of 4060 ng·h/mL and an AUC at 48 h (in vivo) of 2910 ng·h/mL. The AUC(0-t) (in vivo) was 11700 ng·h/mL, the concentration at 0 h (in vivo) was 1.66 ± 1.66 ng/mL and the concentration at 0.5 h (in vivo) was 4.16 ± 2.17 ng/mL. The concentration at 1 h (in vivo) was 3.7 ± 1.98 ng/mL, the concentration at 2 h (in vivo) was 13.4 ± 4.87 ng/mL and the concentration at 4 h (in vivo) was 68.8 ± 22.5 ng/mL. For the same compound, the concentration at 8 h (in vivo) was 284 ± 82 ng/mL, the concentration at 12 h (in vivo) was 767 ± 92.5 ng/mL and the concentration at 24 h (in vivo) was 1040 ± 123 ng/mL. For the same compound, the concentration at 48 h (in vivo) was 744 ± 33.6 ng/mL.
